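1) Cells in 96-well plates. 2) Compound, 48 h, 5 concentrations. 3) Linear interpolation between surrounding doses. 4) Unreached endpoint = highest concentration. GI50 = concentration required for 50% inhibition of growth.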 Calls of active or inactive are those of the source. No stated cut-off is given here; in the data, active = GI50 up to about 1.1 µM and inactive = higher.
Key:
Assay in all cases: inhibition of tumour cell growth, NCI panel, 48 h
[1] = system: DLD-1
[2] = system: DMS-114
[3] = system: DMS-273
[4] = system: KM-20L2
[5] = system: LXFL 529
[6] = system: M19-MEL
[7] = system: RXF 631
[8] = system: SNB-78
[9] = system: XF498

Compound	GI50 [1]	GI50 [2]	GI50 [3]	GI50 [4]	GI50 [5]	GI50 [6]	GI50 [7]	GI50 [8]	GI50 [9]
Cc1ccccc1-n1c(C)nc(-c2ccccc2)cc1=O	> 100 µM (inactive)	> 100 µM (inactive)	> 100 µM (inactive)	> 100 µM (inactive)	> 100 µM (inactive)	> 100 µM (inactive)	> 100 µM (inactive)	> 100 µM (inactive)	–
CN1N=C(Nc2ccccc2)Sc2c1cnn(-c1ccccc1)c2=O	> 100 µM (inactive)	30.4 µM (inactive)	> 100 µM (inactive)	> 100 µM (inactive)	79.8 µM (inactive)	> 100 µM (inactive)	–	–	–
Cc1ccc(C)c(NC(=O)CC2SC(Nc3ccccc3Cl)=NC2=O)c1 (stereo not drawn)	77.4 µM (inactive)	29.9 µM (inactive)	> 100 µM (inactive)	> 100 µM (inactive)	74.3 µM (inactive)	94.4 µM (inactive)	> 100 µM (inactive)	> 100 µM (inactive)	> 100 µM (inactive)
CC1(C)CC(=O)C(CC2C(=O)CCCC2=O)C(=O)C1	> 100 µM (inactive)	> 100 µM (inactive)	> 100 µM (inactive)	> 100 µM (inactive)	> 100 µM (inactive)	> 100 µM (inactive)	–	> 100 µM (inactive)	33.2 µM (inactive)
CCOC(=O)Cc1nc2ccc3c(c2nc1O)C(=O)c1ccccc1C3=O	23.7 µM (inactive)	20.5 µM (inactive)	40.5 µM (inactive)	> 100 µM (inactive)	47.9 µM (inactive)	78.2 µM (inactive)	39.5 µM (inactive)	70.5 µM (inactive)	52.8 µM (inactive)
CCc1cc2c(Nc3ccccc3)c3c(nc2s1)CCCC3	19.4 µM (inactive)	27.5 µM (inactive)	> 100 µM (inactive)	> 100 µM (inactive)	14.2 µM (inactive)	40.7 µM (inactive)	35.2 µM (inactive)	28.9 µM (inactive)	13.4 µM (inactive)
COc1cc(C2[C@H]3C(=O)N(c4ccc(Cc5ccc(N6C(=O)[C@@H]7ON(c8ccccc8)C(c8cc(OC)c(OC)c(OC)c8)[C@@H]7C6=O)cc5)cc4)C(=O)[C@H]3ON2c2ccccc2)cc(OC)c1OC (stereo partly drawn)	> 100 µM (inactive)	> 100 µM (inactive)	> 100 µM (inactive)	> 100 µM (inactive)	–	> 100 µM (inactive)	> 100 µM (inactive)	> 100 µM (inactive)	–
Cc1cnc[nH]c1=O	> 100 µM (inactive)	> 100 µM (inactive)	> 100 µM (inactive)	> 100 µM (inactive)	> 100 µM (inactive)	> 100 µM (inactive)	> 100 µM (inactive)	> 100 µM (inactive)	–
O=S(=O)(NCn1ccc2ccccc21)c1ccccc1	40.9 µM (inactive)	–	> 64.3 µM (inactive)	> 100 µM (inactive)	> 100 µM (inactive)	> 100 µM (inactive)	> 100 µM (inactive)	> 53.1 µM (inactive)	> 100 µM (inactive)
CCCC1=C(CC)C(C(=O)Nc2c(C)cccc2C)=NC(S)N1 (stereo not drawn)	> 100 µM (inactive)	> 100 µM (inactive)	> 100 µM (inactive)	> 100 µM (inactive)	> 100 µM (inactive)	> 100 µM (inactive)	–	> 100 µM (inactive)	> 100 µM (inactive)
COC(=O)C(=O)C(C(=O)C(=O)Nc1ccccc1C(N)=O)c1nc2ccc([N+](=O)[O-])cc2nc1O (stereo not drawn)	> 100 µM (inactive)	–	> 100 µM (inactive)	> 100 µM (inactive)	> 100 µM (inactive)	> 100 µM (inactive)	> 100 µM (inactive)	> 100 µM (inactive)	> 100 µM (inactive)
COc1cccc([C@@]2(O)c3c(ccc(O)c3OC)[C@H]2OC)c1OC	35.7 µM (inactive)	–	–	38.9 µM (inactive)	19.6 µM (inactive)	–	–	49.7 µM (inactive)	–
Cc1cc(Cl)ccc1Nc1nc2c(s1)C(=O)c1ccccc1C2=O	5.45 µM (inactive)	2.2 µM (inactive)	2.52 µM (inactive)	18.9 µM (inactive)	3.67 µM (inactive)	0.728 µM (active)	6.46 µM (inactive)	14.5 µM (inactive)	–
C=CCn1cc(C(=O)NC(=O)NCCCCCOC(=O)CCCCCCCCCCC(=O)OCCCCCNC(=O)NC(=O)c2cn(CC=C)c(=O)n(C)c2=O)c(=O)n(C)c1=O	> 100 µM (inactive)	> 100 µM (inactive)	> 100 µM (inactive)	> 100 µM (inactive)	> 100 µM (inactive)	> 100 µM (inactive)	–	> 100 µM (inactive)	> 100 µM (inactive)
